Measured values published in patent US11427807B2, “Serum-free medium containing PDGF for DS cells” (Shiseido Company, Ltd., priority 2013, dated 2022).

Tested on: dermal sheath (DS) cells
Assay: Growth of DS cells using serum-free medium
Assay type: cell-based, human
Conditions: culturing in serum-free medium containing added PDGF
Description: A 12-well plate (BD) was coated with CELLStart™ (Life Technologies), and cryopreserved DS cells (from person scalp, DSC, passage number: 0) were suspended in 1 ml of serum-free medium and seeded on the plate at 4×10^4 cells per well. The serum-free media used were 1) HFDM-1(−) medium (Cell Science & Technology Institute), 2) HFDM-1(+) medium (Cell Science & Technology Institute), 3) PDGF-AA (10 ng/ml)-dissolved HFDM-1(−) medium and 4) PDGF-BB (10 ng/ml)-dissolved HFDM-1(−) medium. Culturing was conducted at 37° C. in the presence of 5% carbon dioxide gas. The cells were observed under microscopy on days 2, 5 and 10 (FIG. 1: 40×), and the number of cells per visual field was counted (FIG. 2).
A 12-well plate (BD) was coated with CELLStart™ (Life Technologies), and cryopreserved DS cells (from person scalp, DSC, passage number: 0) were suspended in 1 ml of serum-free medium and seeded on the plate at 4×10^4 cells per well. The serum-free media used were 1) StemProSFM CTS (sup+, Life Technologies), 2) PDGF-BB (10 ng/ml)-dissolved StemProSFM CTS (sup+, Life Technologies) and 3) Mosaic hMSC SF Culture Medium (sup+, BD) and 4) PDGF-BB (10 ng/ml)-dissolved Mosaic hMSC SF Culture Medium (sup+, BD). […] The cells were observed under microscopy on days 2 and 7 (FIG. 3: 40×), and the number of cells per visual field was counted (FIG. 4). […]

With PDGF the “growth of DS cells (number of cells per visual field)” value was “significantly grow DS cells”.
